System: Trichoderma pseudokoningii (ATCC #26801), Aureobasidium pullulans (ATCC #9348), and a mixture of Aspergillus niger (ATCC #6275) and Penicillium funiculosum …
Assay: ASTM D4445-10 cumulative fungal growth of all three examined organisms and Synergy Index
Assay type: cell-based
Details: for Σ Fungal Growth: cumulative score of the three sets of fungi; for % of Water-Only Control: Σ fungal growth normalized to water-only control
Procedure: (§1) Radiata pine lumber was machined to specimens with size of 7 mm by 20 mm in cross section and 70 mm long. Solutions prepared as described above were used to treat the machined Radiata pine specimens. The treatment was carried out in a 600 mL beaker. Two unused test pieces were placed on the bottom of the beaker, and the specimens, four in a layer, were placed on the previous layers until all the treatment replicates were included. The specimens were held down with a finger bearing down on a watch glass and submerged in treating solution for 15 seconds. After 15 seconds, the beaker was drained but with specimens still held down, and then was tightly covered with a piece of plastic sheet to prevent drying and was stored overnight. Similarly, untreated control specimens were treated with water.
(§2) One day after treatment, duplicate wood specimens from the same treatment group were tested according to ASTM D4445-10 methodology. The wood specimens were checked for inhibition against sapstain fungi and molds Trichoderma pseudokoningii (ATCC #26801), Aureobasidium pullulans (ATCC #9348), and a mixture of Aspergillus niger (ATCC #6275) and Penicillium funiculosum (ATCC #11797). This method is described below:
(1) Placed duplicate wood specimens on top of polyester mesh and laid on a stack of four (4) filter paper squares (approximately 2 inches by 2.5 inches) presoaked in 5 mL sterile DI water.
(2) Prepared fungal mixture from freshly grown slants of each test organism.
(3) Added 2 mL of DI water and 0.1% Tween 20 to the slant and inverted to mix.
(4) Poured the concentrate into a total volume of 16 mL.
(5) Enumerated the stock via hemocytometer and adjusted to […] with additional DI water.
(6) Inoculated wood specimens via applying 0.25 mL of one of the three separate fungal suspensions to the top of the wood and distributing evenly on the surface with an L-spreader.
(7) Placed inoculated wood specimens in a humidity chamber for one month at 95% or larger relative humidity and 28° C.
(8) Rated wood specimens with a rating from “0” (No Growth) to “5” (Complete Growth).
In order to show more directly the possible synergy in the invention, the results are presented by applying the Synergy Index (S.I.), which is analyzed using the following equation:
FGA=Cumulative fungal growth scores of all three examined organisms of compound […], acting alone
FGA′=Cumulative fungal growth scores of all three examined organisms of compound […], in the mixture
FGB=Cumulative fungal growth scores of all three examined organisms of compound […], acting alone
FGB′=Cumulative fungal growth scores of all three examined organisms of compound […], in the mixture
When SI is greater than 1, antagonism is indicated. […] When SI equals to 1, the action of biocides is additive.
as §1, with “treat” for “treat the”
as §2, with “D4445-10(2019)” for “D4445-10”, “This method is described below:” left out

[1] = 2400 ppm treatment solution, Example 2
[2] = 2400 ppm treatment solution, Example 3
[3] = 4800 ppm treatment solution, Example 2

Compound | Σ Fungal Growth [1] | % of Water-Only Control [1] | Σ Fungal Growth [2] | % of Water-Only Control [2] | Σ Fungal Growth [3] | % of Water-Only Control [3]
CCCCNC(=O)OCC#CI [IPBC, 3-iodo-2-propynyl butyl carbamate] | 2.6 | 18.9% | 3.8 | 29.23% | 2.8 | 19.8%
didecyl bis(hydroxyethyl) ammonium borate [DPAB] | 10.8 | 77.5% | 7.6 | 58.46% | 7.6 | 55.0%

Source: US20220161456A1, “S[…] PRESERVATIVE COMPOSITION COMPRISING POLYMERIC BETAINE AND CARBAMATE” (Troy Corporation, priority 2019, published 2022)
